Legend:
[1] = target: T1, COX2 (Mus musculus, UniProt Q05769); assay: COX2 acetylation analysis with [14C]N-acetyl sphingosine; format: cell-based; conditions: 2 uCi [14C]N-acetyl sphingosine; FIG. 8c
T1 construct: endogenous in cells; host or cells: primary neurons from mouse cerebrum
T1 sequence (Q05769 18-604): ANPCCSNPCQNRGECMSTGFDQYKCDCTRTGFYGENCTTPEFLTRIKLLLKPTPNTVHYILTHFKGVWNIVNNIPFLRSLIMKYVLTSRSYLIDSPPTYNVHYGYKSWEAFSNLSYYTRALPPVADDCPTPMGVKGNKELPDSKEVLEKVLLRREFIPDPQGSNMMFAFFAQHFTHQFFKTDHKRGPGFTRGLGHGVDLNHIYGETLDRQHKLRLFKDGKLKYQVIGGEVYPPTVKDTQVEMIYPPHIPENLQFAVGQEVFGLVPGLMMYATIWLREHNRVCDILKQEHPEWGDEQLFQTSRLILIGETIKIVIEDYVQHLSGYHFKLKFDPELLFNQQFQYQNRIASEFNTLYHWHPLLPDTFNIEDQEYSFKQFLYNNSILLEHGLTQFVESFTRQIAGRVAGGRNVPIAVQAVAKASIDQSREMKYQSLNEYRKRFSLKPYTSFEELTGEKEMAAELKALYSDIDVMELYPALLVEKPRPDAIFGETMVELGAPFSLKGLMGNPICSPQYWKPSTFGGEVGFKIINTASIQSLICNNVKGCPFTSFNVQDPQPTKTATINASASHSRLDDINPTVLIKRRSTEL
Procedure: In order to measure the neuroinflammatory resolution factor, after culturing neurons from mouse cerebrum, CM was prepared by treatment with 10 nM N-acetyl sphingosine 1 phosphate (Toronto Research chemicals, C262710) and N-acetyl sphingosine (Sigma, 01912). For COX2 acetylation analysis, neurons were cultured from mouse cerebrum and then treated with 2 uCi [^14C]N-acetyl sphingosine (ARC, ARC1024). In addition, for in vivo experiments, 7-month-old APP/PS1 mice were injected with 5 mg/kg N-acetyl sphingosine (Sigma, 01912), 1 mg/kg FTY720 and 3 uM S1P daily for 4 weeks via intraperitoneal injection. 1 month-old NPC mice were injected with 5 mg/kg N-acetyl sphingosine (Sigma, 01912) and 2-month-old FUS mice with 30 mg/kg N-acetyl sphingosine (Sigma, 01912) daily for 4 weeks via subcutaneous injection.
Next, it was confirmed using N-acetyl sphingosine with C^14 attached to confirm whether the secretion of the neuroinflammatory resolution factor by the compounds was due to the increase in COX2 acetylation,
(§1) In addition, it was confirmed that serine 565 (S565) against the COX2 peptide 560-[…]-575 was acetylated in the presence of N-acetyl sphingosine (FIG. 8d).

[2] = target: T2, COX2 (Homo sapiens, UniProt P35354); assay: LC-MS/MS identification of the COX2 acetylation site; format: biochemical; conditions: FIG. 8d
T2 sequence (P35354 18-604): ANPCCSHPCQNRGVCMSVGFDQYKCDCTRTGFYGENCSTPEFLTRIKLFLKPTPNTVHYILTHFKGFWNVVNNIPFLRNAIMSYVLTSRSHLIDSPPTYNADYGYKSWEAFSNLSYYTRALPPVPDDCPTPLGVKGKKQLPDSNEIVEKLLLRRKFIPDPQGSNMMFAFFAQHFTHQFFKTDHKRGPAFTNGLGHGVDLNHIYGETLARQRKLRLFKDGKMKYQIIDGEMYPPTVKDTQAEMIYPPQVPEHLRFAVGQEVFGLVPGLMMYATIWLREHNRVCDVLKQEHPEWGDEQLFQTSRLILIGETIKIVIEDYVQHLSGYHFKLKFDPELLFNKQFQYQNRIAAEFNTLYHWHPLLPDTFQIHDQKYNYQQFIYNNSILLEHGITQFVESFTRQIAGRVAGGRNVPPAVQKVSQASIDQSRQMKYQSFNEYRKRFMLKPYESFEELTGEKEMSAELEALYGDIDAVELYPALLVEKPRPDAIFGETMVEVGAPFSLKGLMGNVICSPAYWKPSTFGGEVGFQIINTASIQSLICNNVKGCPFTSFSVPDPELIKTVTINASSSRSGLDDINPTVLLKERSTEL
Procedure: To confirm the acetylation site of COX2, the COX2 enzyme was precipitated with trichroloacetic acid (Merck) and dried. The dried extract was resuspended in 10 μL of 5M urea solution, and 0.1M ammonium bicarbonate buffer was incubated at 37° C. with 1 μg trypsin (Promega) for 16 hours. Then, the sample was treated with 1M DTT (GE Healthcare) at room temperature for 1 hour and then alkylated with 1M iodoacetamide (Sigma) for 1 hour. Protein samples were loaded onto a ZORBAX 300SB-C18 column for sequencing. Peptides were identified with BioTools 3.2 SR5 (Bruker Daltonics).
as §1

CCCCCCCCCCCCC/C=C/[C@@H](O)[C@H](CO)NC(C)=O [N-acetyl sphingosine]
COX2 acetylation compared with the sample of SphK1, acetyl-CoA and sphingosine [1]: more acetylation
acetylation of serine 565 (S565) of COX2 peptide 560-GCPFTSFSVPDPELIK-575 [2]: acetylated

Reference: patent publication US11899025B2, “Pharmaceutical composition for preventing or treating neurodegenerative diseases comprising COX2 acetylating agent as active ingredient” (KYUNGPOOK NATIONAL UNIVERSITY INDUSTRY-ACADEMIC COOPERATION …, priority 2018, dated 2024)
